Results: article PMC7322745 (Journal of Ginseng Research, 2019)

Format: in vivo, human
Settings: for Tmax: both, human, serum, oral, 3 g, mean Tmax, all participants (RG and FRG groups together)

| Tmax [h] | AUC in the FRG group relative to the RG group (mean AUC, FRG group vs RG group) | Compound |
| --- | --- | --- |
| 9.41 ± 4.42 | – | CC(C)=CCC[C@](C)(O[C@@H]1O[C@H](CO)[C@@H](O)[C@H](O)[C@H]1O)[C@H]1CC[C@]2(C)[C@@H]1[C@H](O)C[C@@H]1[C@@]3(C)CC[C@H](O[C@@H]4O[C@H](CO)[C@@H](O)[C@H](O)[C@H]4O[C@@H]4O[C@H](CO)[C@@H](O)[C@H](O)[C@H]4O)C(C)(C)[C@@H]3CC[C@]12C [Rd, ginsenoside Rd] |
| 9.32 ± 3.38 | more than six | CC(C)=CCC[C@](C)(O[C@@H]1O[C@H](CO)[C@@H](O)[C@H](O)[C@H]1O)[C@H]1CC[C@]2(C)[C@@H]1[C@H](O)C[C@@H]1[C@@]3(C)CC[C@H](O[C@@H]4O[C@H](CO)[C@@H](O)[C@H](O)[C@H]4O)C(C)(C)[C@@H]3CC[C@]12C [F2, ginsenoside F2] |
